Test results reported in patent US20160158267A1, “METHODS OF PREVENTING, REDUCING OR TREATING MACULAR DEGENERATION” (Inotek Pharmaceuticals Corporation, priority 2014, published 2016).
Where “and” joins values, the source holds several entries; their conditions need not be identical. Equal values may be shown once. Read-outs that look alike come from different tables or passages of the source.

Experiments:
[1] = target: T1, human adenosine A3 receptor (Homo sapiens, UniProt P0DMS8); assay: Inhibition of forskolin-stimulated adenylyl cyclase via A3 receptor, CHO cell membranes; format: biochemical; details: membranes of CHO cells stably transfected with human A3
T1 sequence (P0DMS8 1-318): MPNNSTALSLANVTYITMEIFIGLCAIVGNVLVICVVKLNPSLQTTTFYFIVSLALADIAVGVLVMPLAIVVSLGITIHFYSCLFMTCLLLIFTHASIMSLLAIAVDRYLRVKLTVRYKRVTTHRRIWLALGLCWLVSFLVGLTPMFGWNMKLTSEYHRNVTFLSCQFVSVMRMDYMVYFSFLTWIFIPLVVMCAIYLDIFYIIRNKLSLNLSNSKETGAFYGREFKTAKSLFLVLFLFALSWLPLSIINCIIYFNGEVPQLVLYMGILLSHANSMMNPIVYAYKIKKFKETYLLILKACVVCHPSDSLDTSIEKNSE
Protocol: The A1 and A3 receptor-mediated inhibition of forskolin-stimulated adenylyl cyclase activity was tested in membranes prepared from CHO cells stably transfected with the human A1 and A3 adenosine receptors.

BALB/c mice [2] = format: in vivo
Excerpt: (§1) The rodent retina is widely used to investigate retinal diseases, as well as the response of central nervous system neurons to injury. Light-induced retinal damage (phototoxicity) selectively brings about photoreceptor cell death. Thus, this model is useful for studying the potential mechanisms underlying photoreceptor death and the subsequent retinal degeneration processes since it mimics the photoreceptor degeneration that forms the main characteristic of age-related macular degeneration.
(§2) Aliquots were removed from the refrigerator and allowed to warm to room temperature for at least 30 minutes before dosing. The positive control, BDNF, was reconstituted with 0.9% Sodium Chloride for Injection, USP at a concentration of 1 μg/μL. Any residual volumes were discarded.
(§3) Thirty-four (34) male BALB/c mice were received from Charles River, St Constant.
The dose volume for each eye/dose was 10 μL. The formulations were stirred continuously during dose administration and were retained on wet ice between doses.
(§4) The positive control, BDNF, was administered to Group 4 animals by single bilateral intravitreal (IVT) injection on Day 1. The dose volume was 1 μL/eye. Animals were anesthetized for the dosing procedure using an isoflurane/oxygen mix and/or a sedative cocktail (ketamine 100 mg/kg; xylazine 10 mg/kg; half or quarter dose if needed given by intraperitoneal injection). Injections were made using a glass microneedle connected to a Hamilton syringe via a sclera pilot hole created with a 30 G needle. A bland lubricating ointment was applied to the eyes following dosing.
On Day 2, animals were transferred to the blue light bins (housed individually). Light fixtures with bulbs emitting blue light (460 to 490 nm; Philips F40/BB Special Blue F40T12/BB) were attached to separate housing racks directly above the cages, such that all animals received similar light exposure. […] Hiding devices/tubes and bedding were not available in the bins.
The anesthetic used was ketamine (100 mg/kg) and xylazine (10 mg/kg).
All animals were euthanized on Day 8 and underwent exsanguination from the abdominal aorta after carbon dioxide asphyxiation.
One eye from each animal was embedded in paraffin, sectioned, mounted on glass slides, and stained with hematoxylin and eosin.
The outer nuclear layer (ONL) thickness (number of cell layers) were counted at 4 locations in the retina and a microscopic evaluation of the retina, including pigmented retinal epithelial cells, was conducted.

BALB/c mice [3] = format: in vivo; details: for Group mean of the number of cell layers in retinal outer nuclear layer: placebo 7.22
Excerpt: as §1, §2, §3
The test item and placebo were administered by twice-daily topical ocular instillation from Days 1 to 7, separated by at least 8 hours. The dose volume for each eye/dose was 10 μL. The formulations were stirred continuously during dose administration and were retained on wet ice between doses.
as §4
On Day 2, animals were transferred to the blue light bins (housed individually). Light fixtures with bulbs emitting blue light (460 to 490 nm; Philips F40/BB Special Blue F40T12/BB) were attached to separate housing racks directly above the cages, such that all animals received similar light exposure. The light intensity in the bins was measured using a light meter; the average intensity was 550 lux. Hiding devices/tubes and bedding were not available in the bins.
Mortality/moribundity checks were performed twice daily, once in the morning and once in the afternoon, throughout the study. Detailed examinations were performed weekly. Individual body weights were measured twice pre-treatment and at necropsy.
Electroretinography (ERG) was performed once pre-treatment and once at the end of Week 1 following overnight dark adaptation. The anesthetic used was ketamine (100 mg/kg) and xylazine (10 mg/kg).
All animals were euthanized on Day 8 and underwent exsanguination from the abdominal aorta after carbon dioxide asphyxiation. No necropsy examinations were performed.
One eye from each animal was embedded in paraffin, sectioned, mounted on glass slides, and stained with hematoxylin and eosin. The other eye was retained.
Histopathological evaluation was performed by a board-certified veterinary pathologist or veterinary pathologist with training and experience in laboratory animal pathology. The outer nuclear layer (ONL) thickness (number of cell layers) were counted at 4 locations in the retina and a microscopic evaluation of the retina, including pigmented retinal epithelial cells, was conducted. Representative images were captured for consultation and illustrative purposes.

A2A adenosine receptor = A2A adenosine receptor (Homo sapiens, UniProt P29274); assay: Adenosine receptor binding, A1 > A2A selectivity; details: ratio of Ki values
Chain of A2A adenosine receptor (P29274 whole entry): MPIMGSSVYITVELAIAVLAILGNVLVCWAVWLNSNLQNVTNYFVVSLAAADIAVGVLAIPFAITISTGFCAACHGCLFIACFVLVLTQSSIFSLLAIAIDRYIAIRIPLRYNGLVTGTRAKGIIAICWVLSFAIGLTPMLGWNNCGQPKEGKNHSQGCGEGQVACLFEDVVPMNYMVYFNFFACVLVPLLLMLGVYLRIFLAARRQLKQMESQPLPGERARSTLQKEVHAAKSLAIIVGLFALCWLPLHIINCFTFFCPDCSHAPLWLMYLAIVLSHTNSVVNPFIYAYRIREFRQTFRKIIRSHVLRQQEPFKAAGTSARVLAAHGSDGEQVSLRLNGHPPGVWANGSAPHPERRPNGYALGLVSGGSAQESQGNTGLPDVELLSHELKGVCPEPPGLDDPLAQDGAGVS
Protocol: The cell suspension is then homogenized in ice-cold hypotonic buffer (5 mM Tris/HCl mM EDTA, pH 7.4) and the homogenate is spun for 10 minutes (4° C.) at 1,000 g.

## O=[N+]([O-])OC[C@H]1O[C@@H](n2cnc3c(NC4CCCC4)ncnc32)[C@H](O)[C@@H]1O [Compound A, ((2R,3S,4R,5R)-5-(6-(cyclopentylamino)-9H-purin-9-yl)-3,4-dihydroxytetrahydrofuran-2-yl)methyl nitrate]
[1]
  EC50: > 100000 nM
BALB/c mice [2]; 600 or 900 μg/eye/day topical
  Average number of cell layers in the ONL, placebo compared to treated group: reduced in the placebo group
BALB/c mice [2]; 600 or 900 μg/eye/day, versus placebo control, comparable to BDNF positive control
  B-wave amplitude following 0 dB scotopic flash stimuli: higher
BALB/c mice [2]; low dose group (600 μg/eye/day), compared with all groups
  Number of nuclear bodies in the ONL based on average ONL thickness counts: retained the greatest number of nuclear bodies in the ONL
BALB/c mice [2]; two or three-times daily at 600 or 900 μg/eye/day topical, 1100 lux for 6 hours on Day 2
  Overall ERG function and ONL cellularity after blue light exposure: preservation of ERG function and cellularity in the ONL layer of the retina
BALB/c mice [3]; 300 μg/eye/day topical, placebo 6/8
  Incidence of minimal to moderate decrease in cellularity of the retina: 7/8
BALB/c mice [3]; 300 μg/eye/day topical
  Group mean of the number of cell layers in retinal outer nuclear layer: 7.28 layers
BALB/c mice [3]; 600 μg/eye/day topical, other animals not affected at all
  Incidence of minimally decreased retinal cellularity: 2/8
BALB/c mice [3]; 600 μg/eye/day topical
  Group mean of the number of cell layers in retinal outer nuclear layer: 8.56 layers
BALB/c mice [3]; 600 μg/eye/day, 7 days twice daily topical ocular instillation
  Overall effect on incidence and severity of decreased retinal cellularity: protective effect
BALB/c mice [3]; Group 2, low dose 300 μg/eye/day, animals 2001-2008, mean of 4 measurements per retina
  Retinal outer nuclear layer thickness (Mean number of nuclei), individual animals: 10.00 and 9.25 and 6.50 and 5.25 and 7.25 and 6.25 and 5.50 and 8.25
BALB/c mice [3]; Group 3, high dose 600 μg/eye/day, animals 3001-3008, mean of 4 measurements per retina
  Retinal outer nuclear layer thickness (Mean number of nuclei), individual animals: 9.25 and 9.00 and 9.75 and 7.75 (2×) and 9.50 and 8.75 and 6.75
BALB/c mice [3]; male BALB/c mice, dosing period, 300 or 600 μg/eye/day topical twice daily Days 1 to 7
  Abnormalities in general appearance or condition of the animals: No abnormalities were observed
BALB/c mice [3]; one week after blue light exposure, 300 or 600 μg/eye/day, versus other groups including placebo
  ERG parameters (scotopic single flash 0 dB, A-wave and B-wave): comparable across treatment groups

## O=[N+]([O-])OC[C@H]1O[C@@H](n2cnc3c(NC4CCOC4)ncnc32)[C@H](O)[C@@H]1O (stereo partly drawn) [Compound D, ((2R,3S,4R,5R)-3,4-dihydroxy-5-(6-(tetrahydrofuran-3-ylamino)-9H-purin-9-yl)tetrahydrofuran-2-yl)methyl nitrate]
A2A adenosine receptor
  A1 > A2A SELECTIVITY [KiA2(nm)/KiA1(nm)]: >9434

B1: BDNF: Brain Derived Neurotrophic Factor, positive control given by single bilateral intravitreal injection (protein, UniProt P23560 19-247, looked up)
Neurotrophic factor BDNF …: APMKEANIRGQGGLAYPGVRTHGTLESVNGPKAGSRGLTSLADTFEHVIEELLDEDQKVRPNEENNKDADLYTSRVMLSSQVPLEPPLLFLLEEYKNYLDAANMSMRVRRHSDPARRGELSVCDSISEWVTAADKKTAVDMSGGTVTVLEKVPVSKGQLKQYFYETKCNPMGYTKEGCRGIDKRHWNSQCRTTQSYVRALTMDSKKRIGWRFIRIDTSCVCTLTIKRGR
BALB/c mice [2]; BDNF control, 1 μg/eye IVT
  Average number of cell layers in the ONL, placebo compared to treated group: reduced in the placebo group
BALB/c mice [3]; 1 μg/eye single IVT injection Day 1
  Group mean of the number of cell layers in retinal outer nuclear layer: 8.75 layers
BALB/c mice [3]; Group 4, 1 μg/eye/day IVT, animals 4001-4008, mean of 4 measurements per retina
  Retinal outer nuclear layer thickness (Mean number of nuclei), individual animals: 7.75 (2×) and 9.25 and 8.50 (2×) and 8.75 and 10.50 and 9.00
